The subject of the test is K562 human chronic myeloid leukaemia cells. Put plainly: K562 assay (MTT cytotoxicity of released compounds). As to conditions: drug for 1 hour or 96 hours, MTT readout. In kind it is cell-based. The method, then:
K562 human chronic myeloid leukaemia cells were maintained in RPM1 1640 medium supplemented with 10% fetal calf serum and 2 mM glutamine at 37° C. in a humidified atmosphere containing 5% CO2 and were incubated with a specified dose of drug for 1 hour or 96 hours at 37° C. in the dark. The incubation was terminated by centrifugation (5 min, 300 g) and the cells were washed once with drug-free medium. Following the appropriate drug treatment, the cells were transferred to 96-well microtiter plates (10^4 cells per well, 8 wells per sample). Plates were then kept in the dark at 37° C. in a humidified atmosphere containing 5% CO2. The assay is based on the ability of viable cells to reduce a yellow soluble tetrazolium salt, 3-(4,5-dimethylthiazol-2-yl)-2,5-diphenyl-2H-tetrazolium bromide (MTT, Aldrich-Sigma), to an insoluble purple formazan precipitate. Following incubation of the plates for 4 days (to allow control cells to increase in number by approximately 10 fold), 20 μL of MTT solution (5 mg/mL in phosphate-buffered saline) was added to each well and the plates further incubated for 5 h. The plates were then centrifuged for 5 min at 300 g and the bulk of the medium pipetted from the cell pellet leaving 10-20 μL per well. […] The optical density was then read at a wavelength of 550 nm on a Titertek Multiscan ELISA plate reader, and a dose-response curve was constructed.

For the compound `COc1cc2c(cc1OCCCCCOc1cc3c(cc1OC)C(=O)N1C=C(C)C[C@H]1C=N3)N=C[C@@H]1CC(C)=CN1C2=O` [RelE], the 50% inhibitory concentration (IC50) worked out at 0.425 nM.

The record behind these values is patent US10695433B2, “Pyrrolobenzodiazepine-antibody conjugates” (MEDIMMUNE LIMITED, priority 2012, dated 2020).
